One may read the MIC90 as an inhibitory concentration at the 90% level, which refers to growth in some studies and to a panel of isolates in others. One may read the pIC50 as the negative decadic logarithm of the IC50, by convention in mol/L.

pIC50: −log10 of the molar value. Converted amounts (≈) assume the structure as drawn. Some results are limits rather than exact numbers.

Assay [1] concerns Escherichia coli. The assay is described as follows: Antibacterial activity against Escherichia coli NCTC 10418 assessed as growth inhibition. It is filed as functional.
Assay [2] concerns Escherichia coli. The assay is described as follows: Antibacterial activity against Escherichia coli MC 1061 assessed as growth inhibition. It is filed as functional.
For assay [3], the system named is Staphylococcus aureus. The assay is described as follows: Antibacterial activity against Staphylococcus aureus ATCC 29213 assessed as growth inhibition after 20 hrs by broth dilution method. The assay is classed as functional. To be noted: ATCC 29213, 20 h.
Assay [4] has as its system Staphylococcus aureus. The assay is described as follows: Antibacterial activity against clinical isolates of Staphylococcus aureus EMRSA-16 assessed as growth inhibition after 20 hrs by broth dilution method. The assay is classed as functional. Particulars: EMRSA-16, 20 h. For orientation: Broth dilution looks for growth in wells or tubes with falling amounts of substance.

For assay [5], the system named is Clostridioides difficile. The assay is described as follows: Antibacterial activity against Clostridium difficile CD 630 assessed as growth inhibition. It is filed as functional.
In assay [6] the test system is Clostridioides difficile. The assay is described as follows: Antibacterial activity against Clostridium difficile R20291 assessed as growth inhibition. It is filed as functional.
The subject of assay [7] is Mycobacterium tuberculosis. The assay is described as follows: Antibacterial activity against Mycobacterium tuberculosis H37Rv logarithmic phase forms by spot culture growth inhibition assay. The assay is classed as functional.
A further assay concerns the target DNA gyrase (Staphylococcus aureus, UniProt P0A0K8+P20831). The assay is described as follows: Inhibition of Staphylococcus aureus DNA gyrase assessed as reduction in enzyme-catalyzed supercoiling of relaxed circular pBR322 DNA incubated for 30 mins by agarose gel electrophoresis. It is filed as protein-complex assay.
The nature of assay [8]: Inhibition of Escherichia coli DNA gyrase supercoiling activity.
Assay [9] deals with DNA gyrase subunit A/DNA gyrase subunit B (Mycobacterium tuberculosis (strain ATCC 25618 / H37Rv), UniProt P9WG45+P9WG47). The assay is described as follows: Inhibition of Mycobacterium tuberculosis H37Rv DNA gyrase supercoiling activity.
Assay [10] in a line: Inhibition of Escherichia coli topoisomerase 4-mediated DNA decatenation activity.
A short description of assay [11]: Inhibition of Staphylococcus aureus topoisomerase 4 assessed as inhibition of decatenation of catenated kinetoplast DNA after 30 mins by agarose gel electrophoresis.
Assay [12] is described as follows: Inhibition of Escherichia coli topoisomerase 4-mediated DNA relaxation activity.
Assay [13] deals with Mycobacterium tuberculosis. The assay is described as follows: Antibacterial activity against Mycobacterium tuberculosis H37Rv hypoxia-induced latency form by spot culture growth inhibition assay. The assay is classed as functional.
Assay [14] is described as follows: Inhibition of Clostridium difficile DNA gyrase supercoiling activity. Further details: species or system Clostridioides difficile.

Chain of DNA gyrase subunit A/DNA gyrase subunit B (P9WG45 whole entry): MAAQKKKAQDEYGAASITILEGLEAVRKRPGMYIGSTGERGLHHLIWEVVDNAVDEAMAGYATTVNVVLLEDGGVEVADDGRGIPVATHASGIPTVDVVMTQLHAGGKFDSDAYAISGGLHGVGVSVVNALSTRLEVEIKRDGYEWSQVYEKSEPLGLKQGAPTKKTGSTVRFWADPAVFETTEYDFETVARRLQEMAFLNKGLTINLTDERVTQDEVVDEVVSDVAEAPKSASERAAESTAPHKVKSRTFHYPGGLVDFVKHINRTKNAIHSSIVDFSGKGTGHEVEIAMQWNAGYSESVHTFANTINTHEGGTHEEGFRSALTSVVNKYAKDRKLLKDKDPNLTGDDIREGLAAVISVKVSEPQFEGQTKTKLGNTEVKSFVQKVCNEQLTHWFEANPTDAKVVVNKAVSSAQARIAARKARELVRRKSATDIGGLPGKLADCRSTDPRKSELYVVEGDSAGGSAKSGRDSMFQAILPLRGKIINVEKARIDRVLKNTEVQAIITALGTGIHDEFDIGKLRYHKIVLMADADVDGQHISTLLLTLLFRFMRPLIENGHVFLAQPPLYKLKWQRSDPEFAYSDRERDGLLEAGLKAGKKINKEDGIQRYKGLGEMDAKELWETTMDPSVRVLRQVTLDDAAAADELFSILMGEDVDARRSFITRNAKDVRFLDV
Chain of DNA gyrase subunit A/DNA gyrase subunit B (P9WG47 whole entry): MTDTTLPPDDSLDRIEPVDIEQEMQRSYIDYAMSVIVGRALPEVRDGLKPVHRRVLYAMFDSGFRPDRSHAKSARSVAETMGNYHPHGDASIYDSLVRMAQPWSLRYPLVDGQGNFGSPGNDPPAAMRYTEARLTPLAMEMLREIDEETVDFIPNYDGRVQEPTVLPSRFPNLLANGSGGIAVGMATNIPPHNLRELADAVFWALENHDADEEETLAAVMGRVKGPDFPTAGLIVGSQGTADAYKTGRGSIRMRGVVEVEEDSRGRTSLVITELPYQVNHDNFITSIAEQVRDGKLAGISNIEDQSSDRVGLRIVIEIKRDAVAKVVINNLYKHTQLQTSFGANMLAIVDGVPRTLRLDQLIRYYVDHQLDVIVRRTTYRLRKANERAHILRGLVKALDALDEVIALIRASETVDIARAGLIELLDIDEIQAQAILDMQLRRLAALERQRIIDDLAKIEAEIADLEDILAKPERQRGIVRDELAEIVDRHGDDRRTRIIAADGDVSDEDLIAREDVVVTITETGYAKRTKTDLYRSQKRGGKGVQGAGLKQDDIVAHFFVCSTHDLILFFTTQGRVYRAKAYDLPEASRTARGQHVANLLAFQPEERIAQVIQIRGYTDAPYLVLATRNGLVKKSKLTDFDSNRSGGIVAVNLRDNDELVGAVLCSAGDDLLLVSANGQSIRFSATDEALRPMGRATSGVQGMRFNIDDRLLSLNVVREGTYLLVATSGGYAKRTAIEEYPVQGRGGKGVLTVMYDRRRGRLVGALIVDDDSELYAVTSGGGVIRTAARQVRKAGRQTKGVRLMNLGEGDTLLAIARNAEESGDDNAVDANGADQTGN
Chain of DNA gyrase (P0A0K8 whole entry): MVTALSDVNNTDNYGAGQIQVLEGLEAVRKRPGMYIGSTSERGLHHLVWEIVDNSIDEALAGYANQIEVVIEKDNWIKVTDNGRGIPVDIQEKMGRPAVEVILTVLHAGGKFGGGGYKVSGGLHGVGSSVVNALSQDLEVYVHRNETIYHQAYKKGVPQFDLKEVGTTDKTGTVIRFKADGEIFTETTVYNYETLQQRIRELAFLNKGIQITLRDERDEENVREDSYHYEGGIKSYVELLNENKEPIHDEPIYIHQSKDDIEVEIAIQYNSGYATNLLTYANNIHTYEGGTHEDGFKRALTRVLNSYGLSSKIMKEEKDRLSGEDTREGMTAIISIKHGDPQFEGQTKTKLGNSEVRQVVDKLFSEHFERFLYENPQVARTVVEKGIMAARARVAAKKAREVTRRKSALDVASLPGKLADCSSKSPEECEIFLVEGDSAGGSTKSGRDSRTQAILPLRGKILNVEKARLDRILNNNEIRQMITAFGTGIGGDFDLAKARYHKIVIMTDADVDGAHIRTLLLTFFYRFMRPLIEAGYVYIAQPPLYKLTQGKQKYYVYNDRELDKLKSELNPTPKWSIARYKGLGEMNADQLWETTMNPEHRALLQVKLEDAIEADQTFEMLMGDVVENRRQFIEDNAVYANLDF
Chain of DNA gyrase (P20831 whole entry): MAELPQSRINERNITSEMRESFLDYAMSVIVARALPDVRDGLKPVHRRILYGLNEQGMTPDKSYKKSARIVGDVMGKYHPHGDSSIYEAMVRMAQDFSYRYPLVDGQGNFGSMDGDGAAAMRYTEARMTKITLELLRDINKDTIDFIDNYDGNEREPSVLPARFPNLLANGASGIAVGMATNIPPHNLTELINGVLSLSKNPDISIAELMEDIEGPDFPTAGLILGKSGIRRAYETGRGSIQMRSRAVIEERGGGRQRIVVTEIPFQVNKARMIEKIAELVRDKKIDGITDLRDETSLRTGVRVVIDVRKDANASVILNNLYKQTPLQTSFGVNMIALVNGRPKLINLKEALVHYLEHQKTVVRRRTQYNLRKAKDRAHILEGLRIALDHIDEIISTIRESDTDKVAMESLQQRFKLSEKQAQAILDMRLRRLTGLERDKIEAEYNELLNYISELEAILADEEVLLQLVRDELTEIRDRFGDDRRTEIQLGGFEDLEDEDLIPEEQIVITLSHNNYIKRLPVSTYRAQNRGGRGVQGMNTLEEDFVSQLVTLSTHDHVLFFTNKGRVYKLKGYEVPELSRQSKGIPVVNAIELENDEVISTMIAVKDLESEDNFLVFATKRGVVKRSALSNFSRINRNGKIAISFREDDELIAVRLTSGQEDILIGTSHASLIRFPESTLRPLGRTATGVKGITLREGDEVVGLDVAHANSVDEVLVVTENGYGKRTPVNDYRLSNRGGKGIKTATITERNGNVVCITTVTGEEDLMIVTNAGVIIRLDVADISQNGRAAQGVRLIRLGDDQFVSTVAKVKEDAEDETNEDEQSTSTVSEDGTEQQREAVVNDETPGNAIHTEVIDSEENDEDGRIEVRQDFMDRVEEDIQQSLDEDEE

`COc1cccc(-c2nc3ccc(-c4ccc5nc(-c6cccc(OC)c6)[nH]c5c4)cc3[nH]2)c1`: the MIC90 in the assay on Escherichia coli [1] is more than 64 µg/mL; in the assay with Escherichia coli [2] it was more than 64 µg/mL; in the assay with Staphylococcus aureus [3], more than 128 µg/mL; in the assay on Staphylococcus aureus [4] it was more than 128 µg/mL; in the assay with Clostridioides difficile [5], more than 32 µg/mL; with Clostridioides difficile [6], more than 32 µg/mL. Further, the MIC90 in assay [7] is more than 16 µg/mL. Moreover, the pIC50 is 5.06 on DNA gyrase; less than 4.30 in [8]; 4.54 in assay [9]; less than 4.30 in assay [10]; 4.15 in [11]; less than 4.30 in assay [12].

On to `Cc1ccc(-c2nc3ccc(-c4ccc5nc(-c6ccc(C)cc6)[nH]c5c4)cc3[nH]2)cc1`, for which the MIC90 is more than 64 µg/mL with Escherichia coli [1]; 0.06 µg/mL (≈ 0.145 µM) in the assay with Escherichia coli [2]; 0.03 µg/mL (≈ 0.0724 µM) in the assay on Staphylococcus aureus [3]; 0.06 µg/mL (≈ 0.145 µM) with Staphylococcus aureus [4]; 0.06 µg/mL (≈ 0.145 µM) in the assay on Clostridioides difficile [5]; 0.06 µg/mL (≈ 0.145 µM) with Clostridioides difficile [6]. The values for the MIC90 in assay [7] and in assay [13] were 1 µg/mL (≈ 2.41 µM) and 2 µg/mL (≈ 4.82 µM), respectively. For the same compound, the pIC50 is 5.25 on DNA gyrase; less than 4.30 in [8]; 5.70 in assay [9]; less than 4.30 in assay [10]; 4.29 in assay [11]; less than 4.30 in assay [12].

Take `Nc1ccc(-c2nc3cc(-c4ccc5[nH]c(-c6ccc(N)cc6)nc5c4)ccc3[nH]2)cc1`: the MIC90 was more than 64 µg/mL with Escherichia coli [1]; 0.06 µg/mL (≈ 0.144 µM) with Escherichia coli [2]; 0.125 µg/mL (≈ 0.3 µM) with Staphylococcus aureus [3]; 0.5 µg/mL (≈ 1.2 µM) in the assay on Staphylococcus aureus [4]; 0.03 µg/mL (≈ 0.072 µM) with Clostridioides difficile [5]; 0.125 µg/mL (≈ 0.3 µM) in the assay with Clostridioides difficile [6]. Moreover, the MIC90 in assay [7] turned out to be 16 µg/mL (≈ 38.4 µM); in assay [13], 8 µg/mL (≈ 19.2 µM). Further, the negative-log IC50 (pIC50) at DNA gyrase was 6.52; in assay [8], less than 4.30; in assay [14], 5.08; in [9], 4.95; in assay [10], 5.10; in [11], 4.81. For the same compound, the pIC50 in assay [12] was 5.19.

Take `c1cc(-c2nc3cc(-c4ccc5[nH]c(-c6ccncc6)nc5c4)ccc3[nH]2)ccn1` [RIDINILAZOLE]: the MIC90 is more than 16 µg/mL with Escherichia coli [1]; more than 128 µg/mL with Staphylococcus aureus [3]; more than 128 µg/mL with Staphylococcus aureus [4]; 0.06 µg/mL (≈ 0.154 µM) in the assay with Clostridioides difficile [5]; 0.125 µg/mL (≈ 0.322 µM) in the assay with Clostridioides difficile [6]. For the same compound, the pIC50 (on DNA gyrase; in assay [8]; in [14]; in [10]; in assay [11]) was less than 4.30 each time.

The values are drawn from ChEMBL document CHEMBL3751811, “The discovery of a novel antibiotic for the treatment of Clostridium difficile infections: a story of an effective academic-industrial partnership” (Medchemcomm, 2015).
